Measurements: publication PMC12504763, “Antiproliferation, 3D-multicellular spheroid and VEGFR-2 inhibitory properties of spiroindolin-2-ones with phosphonate function” (Scientific Reports, 2025)
Where “and” joins values, the source holds several entries; their conditions need not be identical. Equal values may be shown once. Read-outs that look alike come from different tables or passages of the source.

Experiments:
COX-2 = biological target: T1, COX-2 (Homo sapiens, UniProt P35354); assay: biochemical; conditions: for inhibition at 10 µM: 3 replicates, read-out: % Inhibition of COX-2 ± SEM; for SI (selectivity index, COX-2/COX-1): at 10 μM
T1 construct: purchased BioVision incorporated USA K548–100
T1 sequence (P35354 18-604): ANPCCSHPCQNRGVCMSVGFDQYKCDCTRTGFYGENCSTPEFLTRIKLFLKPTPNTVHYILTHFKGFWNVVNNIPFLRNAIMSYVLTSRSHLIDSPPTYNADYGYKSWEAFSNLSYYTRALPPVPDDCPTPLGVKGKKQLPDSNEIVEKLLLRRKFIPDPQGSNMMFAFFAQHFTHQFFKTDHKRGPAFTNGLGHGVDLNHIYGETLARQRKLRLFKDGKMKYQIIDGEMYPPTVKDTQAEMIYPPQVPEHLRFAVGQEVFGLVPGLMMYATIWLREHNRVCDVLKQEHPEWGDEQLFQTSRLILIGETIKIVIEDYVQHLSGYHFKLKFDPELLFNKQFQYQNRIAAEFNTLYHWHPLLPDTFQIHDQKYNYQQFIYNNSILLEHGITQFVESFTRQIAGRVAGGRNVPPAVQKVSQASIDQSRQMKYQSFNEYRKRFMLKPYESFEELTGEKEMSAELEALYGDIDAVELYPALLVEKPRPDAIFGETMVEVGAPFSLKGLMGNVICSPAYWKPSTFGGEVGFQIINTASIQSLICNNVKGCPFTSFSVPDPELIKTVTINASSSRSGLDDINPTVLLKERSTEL

COX-1 = biological target: T2, COX-1 (Ovis aries, UniProt P05979); assay: biochemical; conditions: 3 replicates, read-out: % Inhibition of COX-1 ± SEM
T2 construct: purchased BioVision incorporated USA K548–100
T2 sequence (P05979 25-600): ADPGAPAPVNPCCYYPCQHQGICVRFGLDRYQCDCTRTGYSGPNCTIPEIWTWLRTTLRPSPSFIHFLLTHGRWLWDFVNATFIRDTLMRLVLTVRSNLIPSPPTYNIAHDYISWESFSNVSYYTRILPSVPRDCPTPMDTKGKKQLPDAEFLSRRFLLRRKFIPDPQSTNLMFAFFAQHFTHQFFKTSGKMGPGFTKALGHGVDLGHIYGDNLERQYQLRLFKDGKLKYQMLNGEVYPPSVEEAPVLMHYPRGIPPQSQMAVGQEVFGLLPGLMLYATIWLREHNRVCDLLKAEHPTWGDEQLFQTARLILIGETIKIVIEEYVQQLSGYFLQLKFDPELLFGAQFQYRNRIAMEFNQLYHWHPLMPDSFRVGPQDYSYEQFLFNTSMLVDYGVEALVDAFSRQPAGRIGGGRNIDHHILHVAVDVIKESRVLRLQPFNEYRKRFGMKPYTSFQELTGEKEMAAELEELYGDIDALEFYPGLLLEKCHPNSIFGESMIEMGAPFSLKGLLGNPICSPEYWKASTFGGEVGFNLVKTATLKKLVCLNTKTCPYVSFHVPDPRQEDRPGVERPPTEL

TNF-α [1] = assay: TNF-α inhibitory properties (ELISA), MCF7 cell lysate; format: cell-based, human; conditions: at 10 μM; for TNF-α pg/mL (± SEM) MCF7: control 83.26 ± 1.1
VEGFR-2 [2] = biological target: T3, VEGFR-2 (Homo sapiens, UniProt P35968); assay: cell-based; format: cell-based; conditions: for inhibition at 10 µM: MCF7; for VEGFR-2 pg/mL ± SEM MCF7: at 10 μM, control 258.70 ± 2.3
T3 construct: endogenous in cells; host or cells: HCT116, PaCa2, MCF7 (human cancer cell lines, ATCC origin)
T3 sequence (P35968 20-1356): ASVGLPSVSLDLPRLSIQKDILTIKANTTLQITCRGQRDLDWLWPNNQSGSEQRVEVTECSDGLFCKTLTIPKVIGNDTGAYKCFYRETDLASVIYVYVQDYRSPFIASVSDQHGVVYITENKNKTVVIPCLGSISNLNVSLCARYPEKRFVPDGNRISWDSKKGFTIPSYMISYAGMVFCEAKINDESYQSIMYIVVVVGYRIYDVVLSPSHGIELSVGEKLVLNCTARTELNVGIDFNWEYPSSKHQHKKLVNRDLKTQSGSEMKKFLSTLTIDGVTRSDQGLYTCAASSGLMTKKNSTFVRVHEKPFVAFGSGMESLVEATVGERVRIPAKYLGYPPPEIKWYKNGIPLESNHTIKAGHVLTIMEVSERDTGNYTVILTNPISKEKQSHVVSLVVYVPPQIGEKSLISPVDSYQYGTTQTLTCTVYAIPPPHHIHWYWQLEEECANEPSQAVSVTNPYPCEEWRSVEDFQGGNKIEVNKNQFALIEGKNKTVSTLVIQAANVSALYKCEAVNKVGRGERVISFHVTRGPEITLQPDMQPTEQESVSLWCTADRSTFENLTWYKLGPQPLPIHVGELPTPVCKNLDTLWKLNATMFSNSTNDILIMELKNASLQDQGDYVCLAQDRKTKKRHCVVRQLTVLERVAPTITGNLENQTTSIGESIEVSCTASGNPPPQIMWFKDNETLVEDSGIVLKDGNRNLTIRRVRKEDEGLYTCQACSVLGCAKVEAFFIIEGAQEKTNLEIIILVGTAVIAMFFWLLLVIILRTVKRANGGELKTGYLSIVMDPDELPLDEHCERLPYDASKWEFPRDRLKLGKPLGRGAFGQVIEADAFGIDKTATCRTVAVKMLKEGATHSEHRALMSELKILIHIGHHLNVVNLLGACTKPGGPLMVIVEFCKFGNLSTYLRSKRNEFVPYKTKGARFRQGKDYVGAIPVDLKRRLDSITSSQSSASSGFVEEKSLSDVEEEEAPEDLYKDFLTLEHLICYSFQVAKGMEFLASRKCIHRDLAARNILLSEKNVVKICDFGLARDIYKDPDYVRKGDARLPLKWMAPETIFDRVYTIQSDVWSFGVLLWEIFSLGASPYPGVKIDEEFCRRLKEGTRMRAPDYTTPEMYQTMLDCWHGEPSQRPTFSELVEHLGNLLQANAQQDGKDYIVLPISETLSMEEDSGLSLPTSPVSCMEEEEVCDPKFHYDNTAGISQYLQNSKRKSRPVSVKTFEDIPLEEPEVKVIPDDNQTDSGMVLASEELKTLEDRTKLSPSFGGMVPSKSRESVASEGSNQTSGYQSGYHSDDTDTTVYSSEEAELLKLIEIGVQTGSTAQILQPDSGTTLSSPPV

[3] = system: PaCa2 (pancreatic) cancer cell line; assay: 2D-monolayer antiproliferation (MTT) against PaCa2; format: cell-based, human; conditions: for 1/(observed property): 1/observed IC50 (μM), PaCa2; for IC50: Homo sapiens, PaCa-2, MTT, 72 h incubation, PaCa2 pancreatic, read-out: IC50, μM ± SEM PaCa2; for SI (selectivity index) PaCa2: IC50 of RPE1 normal cell/IC50 of PaCa2
[4] = system: MCF7 (breast) cancer cell line; assay: 2D-monolayer antiproliferation (MTT) against MCF7; format: cell-based, human; conditions: for IC50: Homo sapiens, MTT, 72 h incubation, MCF7 breast, read-out: IC50, μM ± SEM MCF7; for SI (selectivity index) MCF7: IC50 of RPE1 normal cell/IC50 of MCF7
HCT116 3D-spheroid = HCT116 3D-spheroid at 50 μM, relative to control
[5] = system: A549 (lung) cancer cell line; assay: 2D-monolayer antiproliferation (MTT) against A549; format: cell-based, human; conditions: for IC50: Homo sapiens, MTT, 72 h incubation, A549 lung, read-out: IC50, μM ± SEM A549; for SI (selectivity index) A549: IC50 of RPE1 normal cell/IC50 of A549
[6] = system: RPE1 (normal human immortalized retinal pigment epithelial cell line); assay: cells; format: cell-based; conditions: Homo sapiens, RPE-1; MTT, normal RPE1 cell; read-out: IC50, μM ± SEM RPE1
[7] = system: HCT116 (colon) cancer cell line; assay: 2D-monolayer antiproliferation (MTT) against HCT116; format: cell-based, human; conditions: for IC50: Homo sapiens, HCT-116; for SI (selectivity index) HCT116: IC50 of RPE1 normal cell/IC50 of HCT116
TNF-α [8] = assay: TNF-α inhibitory properties (ELISA), HCT116 cell lysate; format: cell-based, human; conditions: at 10 μM; for TNF-α pg/mL (± SEM) HCT116: control 95.74 ± 0.5
VEGFR-2 [9] = biological target: T3, VEGFR-2; assay: cell-based; format: cell-based; conditions: for inhibition at 10 µM: HCT-116, HCT116; for VEGFR-2 pg/mL ± SEM HCT116: at 10 μM, control 317.80 ± 3.5
TNF-α [10] = assay: TNF-α inhibitory properties (ELISA), PaCa2 cell lysate; format: cell-based, human; conditions: at 10 μM; for TNF-α pg/mL (± SEM) PaCa2: control 111.8 ± 2.0
VEGFR-2 [11] = biological target: T3, VEGFR-2; assay: cell-based; format: cell-based; conditions: for inhibition at 10 µM: PaCa-2, PaCa2; for VEGFR-2 pg/mL ± SEM PaCa2: at 10 μM, control 326.80 ± 1.9
CAM blood vessel network = assay: Chick chorioallantoic membrane (CAM) anti-angiogenic assay; format: in vivo, chicken; conditions: CAM test, 20 μL of 660 μM, 3 days; control 459.7 ± 13.8
Experimental: CAM assay is an established xenograft technique for investigating the angiogenic effect due to the high resemblance of the human vascularized epithelium basement membrane with that of the chorioallantoic layer containing mainly type IV collagen[84]–[86].
Fig. 10 Images of light microscopy for anti-angiogenic evaluation of the tested compounds using CAM assay. […] The glass slide was placed on the surface of the CAM blood vessel network and left in an incubator at 37 °C for 3 days. The CAM blood vessel network was carefully cut and imaged under a light microscope (40 × magnification).
Fertilized white chicken eggs were incubated in a 37 °C incubator with constant humidity. On day 8, a small squared window was opened allowing the detachment of the growing CAM and shell. The opening was covered with an elastic bandage. […] The CAM was then sealed with a bandage and placed back in the incubator. CAMs were examined daily until day 12 (3 days), the vascularized membranes were then cut around the glass slide and fixed in 5% formalin. Images were taken with an Evos microscope at 40x and 100x magnification^9. Main blood vessel in the microscopic images of controls and samples were quantified by imageJ and analyzed for significant differences (n = 4).

[12] = MTT, 72 h incubation, HCT116 colon, read-out: IC50, μM ± SEM HCT116
[13] = log of observed IC50 (μM), HCT116, read-out: Log(observed property) (converted)

Compound | inhibition at 10 µM (COX-2) [%] | SI (selectivity index, COX-2/COX-1) (COX-2) | inhibition at 10 µM (COX-1) [%] | TNF-α % inhibition MCF7 (TNF-α [1]) [%] | TNF-α pg/mL (± SEM) MCF7 (TNF-α [1]) [pg/mL] | inhibition at 10 µM (VEGFR-2 [2]) [%] | VEGFR-2 pg/mL ± SEM MCF7 (VEGFR-2 [2]) [pg/mL] | 1/(observed property) [3] | IC50 [3] [µM] | SI (selectivity index) PaCa2 [3] | IC50 [4] [µM] | SI (selectivity index) MCF7 [4] | IC50 [5] [µM] | SI (selectivity index) A549 [5] | IC50 [6] [µM] | IC50 [7, 12] [µM] | IC50 [7, 13] [µM] | SI (selectivity index) HCT116 [7] | TNF-α % inhibition HCT116 (TNF-α [8]) [%] | TNF-α pg/mL (± SEM) HCT116 (TNF-α [8]) [pg/mL] | also measured
CCOP(=O)(OCC)N1C/C(=C\c2ccccc2)C(=O)C2(C1)C(c1ccccc1)CN(C)C21C(=O)Nc2ccc(C)cc21 (stereo not drawn) [Compound 17d, Diethyl (E)-(5′′-benzylidene-1′,5-dimethyl-2,4′′-dioxo-4′-phenyldispiro[indoline-3,2′-pyrrolidine-3′,3′′-piperidin]-1′′-yl)phosphonate] | 56.4 ± 1.9 | 0.82 | 51.8 ± 2.2 | 0.1 | 83.2 ± 4.5 | 71.9 | 72.80 ± 1.2 | 0.06423 | 15.6 ± 0.329 | 1.2 | 5.78 ± 0.13 | 3.1 | 14.6 ± 0.27 | 1.2 | 17.9 ± 0.945 | 9.278 ± 0.084 | 9.28 | 1.9 | 1.0 | 94.80 ± 2.5 | %CT (± SEM), percentage cytotoxicity (HCT116 3D-spheroid): 64.1% and 64.1 ± 7.0%; inhibition at 10 µM (VEGFR-2 [9]): 72.5%; VEGFR-2 pg/mL ± SEM HCT116 (VEGFR-2 [9]): 87.40 ± 1.9 pg/mL; TNF-α % inhibition PaCa2 (TNF-α [10]): 7.2%; TNF-α pg/mL (± SEM) PaCa2 (TNF-α [10]): 103.7 ± 4.2 pg/mL; inhibition at 10 µM (VEGFR-2 [11]): 83.7%; VEGFR-2 pg/mL ± SEM PaCa2 (VEGFR-2 [11]): 53.42 ± 0.7 pg/mL
CCOP(=O)(OCC)N1C/C(=C\c2ccc(C)cc2)C(=O)C2(C1)C(c1ccc(C)cc1)CN(C)C21C(=O)Nc2ccccc21 (stereo not drawn) [Compound 17m, Diethyl (E)-[1′-methyl-5′′-(4-methylbenzylidene)-2,4′′-dioxo-4′-(p-tolyl)dispiro[indoline-3,2′-pyrrolidine-3′,3′′-piperidin]-1′′-yl]phosphonate] | 60.9 ± 1.1 | 0.93 | 58.3 ± 3 | 68.5 | 26.24 ± 2.2 | 83.5 | 42.80 ± 0.4 | 0.1784 | 5.61 ± 0.063 | 1.7 | 4.21 ± 0.085 | 2.3 | 8.18 ± 0.435 | 1.2 | 9.57 ± 0.537 | 3.44 ± 0.083 | 3.44 | 2.8 | 77.4 | 21.65 ± 0.9 | Diameter of blood vessel (μm ± SEM) (CAM blood vessel network): 85.7 ± 2.6 μm; inhibition at 10 µM (VEGFR-2 [9]): 86%; VEGFR-2 pg/mL ± SEM HCT116 (VEGFR-2 [9]): 44.50 ± 0.5 pg/mL; TNF-α % inhibition PaCa2 (TNF-α [10]): 70.6%; TNF-α pg/mL (± SEM) PaCa2 (TNF-α [10]): 32.83 ± 1.3 pg/mL; inhibition at 10 µM (VEGFR-2 [11]): 92.2%; VEGFR-2 pg/mL ± SEM PaCa2 (VEGFR-2 [11]): 25.36 ± 1.0 pg/mL
